This is an account of results in ChEMBL document CHEMBL1149933, “Synthesis and structure-activity relationship of C-3 benzoyloxymethyl cephalosporins exhibiting anti-MRSA activities” (Bioorg Med Chem Lett, 1997).

Converted amounts (≈) assume the structure as drawn. Bounds are passed on as bounds.

The test system of data set [1] is Staphylococcus aureus. The experiment in a line: Inhibitory effect against methicillin susceptible Staphylococcus aureus (A 15090), expressed as minimum inhibitory concentration. The class given is functional.
For data set [2], the system named is Staphylococcus aureus. The experiment in a line: Inhibitory effect against methicillin resistant Staphylococcus aureus (A 27217), expressed as minimum inhibitory concentration. The class given is functional.
The subject of data set [3] is Staphylococcus aureus. The experiment in a line: Inhibitory effect against methicillin resistant Staphylococcus aureus (A 27621), expressed as minimum inhibitory concentration. The class given is functional.
Data set [4] relates to Staphylococcus aureus. The experiment in a line: Inhibitory effect against methicillin resistant Staphylococcus aureus (A 27218), expressed as minimum inhibitory concentration. In kind it is functional.
In data set [5] the test system is Staphylococcus aureus. The experiment in a line: Inhibitory effect against methicillin resistant Staphylococcus aureus (A 27223), expressed as minimum inhibitory concentration. In kind it is functional.
A short description of data set [6]: In vitro half life in human plasma was determined. In kind it is ADME, cell-free.
Data set [7] relates to Mus musculus. The experiment in a line: In vivo protective dose against MRSA (strain A 27223). The class given is functional. The settings on record: read-out: PD50.
For data set [8], the system named is Staphylococcus aureus. The experiment in a line: Minimum inhibitory concentration against MRSA (strain A 27223).

Turning to `Cc1ccc(C(=O)OCC2=C(C(=O)O)N3C(=O)[C@@H](NC(=O)CSc4cc(Cl)ccc4Cl)C3SC2)cc1` (stereo not given in full), the MIC was 0.125 µg/mL (≈ 0.22 µM) in data set [1]; 0.5 µg/mL (≈ 0.881 µM) in data set [2]; 0.25 µg/mL (≈ 0.441 µM) in data set [3]; 0.06 µg/mL (≈ 0.106 µM) in data set [4]; 0.5 µg/mL (≈ 0.881 µM) in data set [5].
On to `O=C(CSc1cc(Cl)ccc1Cl)N[C@@H]1C(=O)N2C(C(=O)O)=C(COC(=O)c3cccnc3)CSC12` (stereo not given in full), for which the MIC in data set [1] was found to be 0.125 µg/mL (≈ 0.225 µM); in data set [2] it was 2 µg/mL (≈ 3.61 µM); in data set [3], 4 µg/mL (≈ 7.21 µM); in data set [4] it was 2 µg/mL (≈ 3.61 µM); in data set [5] it was 4 µg/mL (≈ 7.21 µM).
For `CC(=O)Nc1ccc(C(=O)OCC2=C(C(=O)O)N3C(=O)[C@@H](NC(=O)CSc4cc(Cl)ccc4Cl)C3SC2)cc1` (stereo not given in full), the minimal inhibitory concentration (MIC) in data set [1] was 0.06 µg/mL (≈ 0.0983 µM); in data set [2] it was 0.5 µg/mL (≈ 0.819 µM); in data set [3], 1 µg/mL (≈ 1.64 µM); in data set [4], 0.5 µg/mL (≈ 0.819 µM); in data set [5], 1 µg/mL (≈ 1.64 µM).
On to `C[n+]1ccc(C(=O)OCC2=C(C(=O)[O-])N3C(=O)[C@@H](NC(=O)CSc4cc(Cl)ccc4Cl)C3SC2)cc1` (stereo not given in full), for which the minimum inhibitory concentration (MIC) in data set [1] was found to be 0.125 µg/mL (≈ 0.22 µM); in data set [2], 8 µg/mL (≈ 14.1 µM); in data set [3] it was 32 µg/mL (≈ 56.3 µM); in data set [4], 2 µg/mL (≈ 3.52 µM); in data set [5], 32 µg/mL (≈ 56.3 µM).
For `C[n+]1cccc(C(=O)OCC2=C(C(=O)[O-])N3C(=O)[C@@H](NC(=O)CSc4cc(Cl)ccc4Cl)C3SC2)c1` (stereo not given in full), the MIC came to 0.5 µg/mL (≈ 0.88 µM) in data set [1]; 64 µg/mL (≈ 113 µM) in data set [2]; 64 µg/mL (≈ 113 µM) in data set [3]; 32 µg/mL (≈ 56.3 µM) in data set [4]; 64 µg/mL (≈ 113 µM) in data set [5].
In the case of `COc1ccc(C(=O)OCC2=C(C(=O)O)N3C(=O)[C@@H](NC(=O)CSc4cc(Cl)ccc4Cl)C3SC2)cc1` (stereo not given in full), the MIC in data set [1] turned out to be 0.06 µg/mL (≈ 0.103 µM); in data set [2], 0.06 µg/mL (≈ 0.103 µM); in data set [3] it was 0.5 µg/mL (≈ 0.857 µM); in data set [4], 0.125 µg/mL (≈ 0.214 µM); in data set [5] it was 0.5 µg/mL (≈ 0.857 µM).
On to `N#Cc1ccc(C(=O)OCC2=C(C(=O)O)N3C(=O)[C@@H](NC(=O)CSc4cc(Cl)ccc4Cl)C3SC2)cc1` (stereo not given in full), for which the minimal inhibitory concentration (MIC) was found to be 0.03 µg/mL (≈ 0.0519 µM) in data set [1]; 0.125 µg/mL (≈ 0.216 µM) in data set [2]; 0.5 µg/mL (≈ 0.864 µM) in data set [3]; 0.125 µg/mL (≈ 0.216 µM) in data set [4]; 1 µg/mL (≈ 1.73 µM) in data set [5].
Turning to `CN(C)c1ccc(C(=O)OCC2=C(C(=O)O)N3C(=O)[C@@H](NC(=O)CSc4cc(Cl)ccc4Cl)C3SC2)cc1` (stereo not given in full), the MIC turned out to be 0.06 µg/mL (≈ 0.101 µM) in data set [1]; 0.125 µg/mL (≈ 0.21 µM) in data set [2]; 0.25 µg/mL (≈ 0.419 µM) in data set [3]; 0.125 µg/mL (≈ 0.21 µM) in data set [4]; 0.25 µg/mL (≈ 0.419 µM) in data set [5]. Moreover, the half-life in data set [6] is more than 10 h.
Regarding `O=C(CSc1cc(Cl)ccc1Cl)N[C@@H]1C(=O)N2C(C(=O)O)=C(COC(=O)c3ccncc3)CSC12` (stereo not given in full), the MIC was determined as 0.06 µg/mL (≈ 0.108 µM) in data set [1]; 1 µg/mL (≈ 1.8 µM) in data set [2]; 4 µg/mL (≈ 7.21 µM) in data set [3]; 0.5 µg/mL (≈ 0.902 µM) in data set [4]; 8 µg/mL (≈ 14.4 µM) in data set [5].
On to `O=C(CSc1cc(Cl)ccc1Cl)N[C@@H]1C(=O)N2C(C(=O)O)=C(COC(=O)c3ccc(O)cc3)CSC12` (stereo not given in full), for which the MIC turned out to be 0.007 µg/mL (≈ 0.0123 µM) in data set [1]; 0.06 µg/mL (≈ 0.105 µM) in data set [2]; 0.5 µg/mL (≈ 0.878 µM) in data set [3]; 0.06 µg/mL (≈ 0.105 µM) in data set [4]; 0.25 µg/mL (≈ 0.439 µM) in data set [5].
On to `CC(=O)OCC1=C(C(=O)O)N2C(=O)[C@@H](NC(=O)CSc3cc(Cl)ccc3Cl)C2SC1` (stereo not given in full), for which, in data set [6], the half-life was approximately 4.17 h. For the same compound, the ED50 in data set [7] turned out to be 2 mg/kg. The MIC in data set [8] came to 2 µg/mL (≈ 4.07 µM).
Take `CC(=O)Oc1ccc(C(=O)OCC2=C(C(=O)O)N3C(=O)[C@@H](NC(=O)CSc4cc(Cl)ccc4Cl)C3SC2)cc1` (stereo not given in full): the minimal inhibitory concentration (MIC) in data set [1] was determined as 0.007 µg/mL (≈ 0.0114 µM); in data set [2], 0.06 µg/mL (≈ 0.0981 µM); in data set [3] it was 0.125 µg/mL (≈ 0.204 µM); in data set [4], 0.06 µg/mL (≈ 0.0981 µM); in data set [5] it was 0.125 µg/mL (≈ 0.204 µM).
With `O=C(CSc1cc(Cl)ccc1Cl)N[C@@H]1C(=O)N2C(C(=O)O)=C(COC(=O)c3ccccc3)CSC12` (stereo not given in full), the MIC in data set [1] came to 0.06 µg/mL (≈ 0.108 µM); in data set [2] it was 1 µg/mL (≈ 1.81 µM); in data set [3], 1 µg/mL (≈ 1.81 µM); in data set [4], 0.5 µg/mL (≈ 0.903 µM); in data set [5] it was 1 µg/mL (≈ 1.81 µM). Besides, in data set [6], the half-life is more than 10 h.
Turning to `O=C(CSc1cc(Cl)ccc1Cl)N[C@@H]1C(=O)N2C(C(=O)O)=C(COC(=O)c3ccc([N+](=O)[O-])cc3)CSC12` (stereo not given in full), the MIC in data set [1] is 0.06 µg/mL (≈ 0.1 µM); in data set [2] it was 0.25 µg/mL (≈ 0.418 µM); in data set [3] it was 2 µg/mL (≈ 3.34 µM); in data set [4], 0.25 µg/mL (≈ 0.418 µM); in data set [5] it was 2 µg/mL (≈ 3.34 µM).
For `CN[C@H](CC(C)C)C(=O)N[C@H]1C(=O)N[C@@H](CC(N)=O)C(=O)N[C@H]2C(=O)N[C@H]3C(=O)N[C@H](C(=O)N[C@H](C(=O)O)c4cc(O)cc(O)c4-c4cc3ccc4O)[C@H](O)c3ccc(c(Cl)c3)Oc3cc2cc(c3O[C@@H]2O[C@H](CO)[C@@H](O)[C@H](O)[C@H]2O[C@H]2C[C@](C)(N)[C@H](O)[C@H](C)O2)Oc2ccc(cc2Cl)[C@H]1O` [VANCOMYCIN], the MIC in data set [1], in data set [2], in data set [3], in data set [4] and in data set [5] was 0.25 µg/mL (≈ 0.173 µM) throughout.
